In patent US6737383B1, “Herbicidal oxadiazolidines” (priority 1999, dated 2004):

Columns and labels:
[1] = tested on: morningglory; experiment: Test B pre/postemergence morningglory; format: in vivo, Ipomoea hederacea
Procedure, shortened: (§1)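 Test chemicals in a non-phytotoxic solvent mixture with surfactant were sprayed preemergence onto planted seeds and postemergence onto plants 2 to 18 cm tall (1- to 4-leaf stage). After twelve to sixteen days in a greenhouse, injury was visually rated against untreated controls from 0 (no effect) to 10 (complete control).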

[2] = tested on: pigweed; experiment: Test B pre/postemergence pigweed; format: in vivo, Amaranthus retroflexus
Procedure, shortened: as §1

[3] = tested on: wild oat; experiment: Test B pre/postemergence wild oat; format: in vivo, Avena fatua; conditions: for Plant response rating, Wild oats: Rate 250 g/ha
Procedure, shortened: as §1

[4] = tested on: Alexandergrass; experiment: Test D Alexandergrass; format: in vivo, Brachiaria plantaginea; conditions: Preemergence, 0 to 100 scale
Procedure, shortened: (§2)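 Each weed species is planted in its own pot or compartment; preemergence doses go on the sandy loam surface within a day. The formulation is a surfactant-containing, non-phytotoxic solvent blend. Ratings come from visual comparison with untreated controls 14 to 21 days later, where 100 means complete control.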

[5] = tested on: guineagrass; experiment: Test D guineagrass; format: in vivo, Panicum maximum; conditions: Preemergence, 0 to 100 scale
Procedure, shortened: as §2

[6] = tested on: Spanishneedles; experiment: Test D Spanishneedles; format: in vivo, Bidens bipinnata; conditions: Preemergence, 0 to 100 scale
Procedure, shortened: as §2

[7] = tested on: tall mallow; experiment: Test D tall mallow; format: in vivo, Malva sylvestris; conditions: Preemergence, 0 to 100 scale
Procedure, shortened: as §2

[8] = tested on: winter wheat; experiment: Test E winter wheat; format: in vivo, Triticum aestivum; conditions: Postemergence
Procedure, shortened: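 Plants were grown under normal greenhouse practice; for postemergence, in sandy loam soil mixed 60:40 with potting mix, treated at the 1- to 4-leaf stage. The compound was in a non-phytotoxic solvent carrying a surfactant. After roughly 21 to 28 days plants were scored visually against untreated plants.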

[9] = tested on: Green foxtail; experiment: Test D green foxtail; format: in vivo
Procedure, shortened: as §2

[10] = tested on: blackgrass; experiment: Test E blackgrass; format: in vivo, Alopecurus myosuroides; conditions: Preemergence
[11] = tested on: green foxtail; experiment: Test E green foxtail; format: in vivo, Setaria viridis; conditions: Preemergence
[12] = tested on: Italian ryegrass; experiment: Test E Italian ryegrass; format: in vivo, Lolium multiflorum; conditions: Preemergence
[13] = tested on: winter wheat; experiment: Test E winter wheat; format: in vivo, Triticum aestivum; conditions: Preemergence
[14] = tested on: wild oat; experiment: Test E wild oat; format: in vivo, Avena fatua; conditions: Preemergence
[15] = tested on: winter barley; experiment: Test E winter barley; format: in vivo, Hordeum vulgare; conditions: Preemergence
[16] = Postemergence, Rate 125 g/ha, scale of 0 to 10 where 0 is no effect and 10 is complete control
[17] = Preemergence, Rate 62 g/ha, scale 0 to 10 (0 no effect, 10 complete control)
[18] = Preemergence, Rate 125 g/ha, scale 0 to 10 (0 no effect, 10 complete control)
[19] = Preemergence, Rate 250 g/ha, scale of 0 to 10 where 0 is no effect and 10 is complete control
[20] = Preemergence, Rate 500 g/ha, scale 0 to 10 (0 no effect, 10 complete control)
[21] = Rate 62 g/ha, Postemergence, scale of 0 to 10 where 0 is no effect and 10 is complete control
[22] = Rate 500 g/ha, Postemergence, scale 0 to 10, 0 no effect, 10 complete control
[23] = Rate 16 g/ha, 0 no injury, 100 complete control
[24] = Rate 32 g/ha, 0 no injury, 100 complete control
[25] = Rate 64 g/ha, 0 no injury, 100 complete control
[26] = Rate 64 g/ha, Preemergence; 0 to 100 scale, 0 no injury, 100 complete control
[27] = Rate 62 g/ha, 0 to 100 scale, 0 no effect, 100 complete control
[28] = Rate 125 g/ha, 0 to 100 scale (0 no effect, 100 complete control)

**Q.** CC(C)N(C(=O)n1oc(=O)n(C2CCCCC2)c1=O)c1ccccc1 [Compound 112] was tested. Which “Morningglory plant response rating” value [1, 16] did it give?
**A.** Its value is 10.

**Q.** What about the “Morningglory plant response rating” value ([1]; Postemergence, Rate 250 g/ha, scale 0 to 10, 0 no effect, 10 complete control) of the same molecule?
**A.** Its value is 10.

**Q.** And the “Morningglory plant response rating” value [1, 17]?
**A.** Its value is 0.

**Q.** What about the “Plant response rating, Morningglory” value [1, 18] of the same molecule?
**A.** Its value is 2.

**Q.** And the “Plant response rating, Morningglory” value [1, 19]?
**A.** The value was 2.

**Q.** What about the “Morningglory plant response rating” value [1, 20] of the same molecule?
**A.** Its value is 2.

**Q.** And the “Morningglory plant response rating” value [1, 21]?
**A.** Its value is 8.

**Q.** What about the “Morningglory plant response rating” value [1, 22] of the same molecule?
**A.** Its value is 10.

**Q.** What about the “Redroot pigweed plant response rating” value [2, 16] of the same molecule?
**A.** The value was 3.

**Q.** And the “Redroot pigweed plant response rating” value [2, 17]?
**A.** Its value is 0.

**Q.** And the “Plant response rating, Redroot pigweed” value [2, 18]?
**A.** The value was 2.

**Q.** What about the “Plant response rating, Redroot pigweed” value [2, 19] of the same molecule?
**A.** The value was 7.

**Q.** What about the “Redroot pigweed plant response rating” value [2, 20] of the same molecule?
**A.** The value was 9.

**Q.** What about the “Redroot pigweed plant response rating” value [2, 21] of the same molecule?
**A.** The value was 2.

**Q.** And the “Plant response rating, Redroot pigweed” value ([2]; Rate 250 g/ha, Postemergence, scale 0 to 10, 0 is no effect, 10 is complete control)?
**A.** The value was 5.

**Q.** What about the “Redroot pigweed plant response rating” value [2, 22] of the same molecule?
**A.** Its value is 5.

**Q.** And the “Wild oats plant response rating” value [3, 16]?
**A.** Its value is 0.

**Q.** And the “Wild oats plant response rating” value [3, 17]?
**A.** Its value is 0.

**Q.** What about the “Wild oats plant response rating (0 to 10 scale)” value ([3]; Preemergence, Rate 125 g/ha, 0 is no effect, 10 is complete control) of the same molecule?
**A.** The value was 0.

**Q.** What about the “Plant response rating, Wild oats” value ([3]; Preemergence, scale of 0 to 10 where 0 is no effect and 10 is complete control) of the same molecule?
**A.** Its value is 2.

**Q.** What about the “Wild oats plant response rating” value [3, 20] of the same molecule?
**A.** The value was 6.

**Q.** What about the “Wild oats plant response rating” value [3, 21] of the same molecule?
**A.** Its value is 0.

**Q.** And the “Plant response rating, Wild oats” value ([3]; Postemergence, scale 0 to 10, 0 is no effect, 10 is complete control)?
**A.** Its value is 0.

**Q.** What about the “Wild oats plant response rating” value [3, 22] of the same molecule?
**A.** The value was 1.

**Q.** What about the “Plant response rating, Alexandergrass” value [4, 23] of the same molecule?
**A.** Its value is 0.

**Q.** What about the “Plant response rating, Alexandergrass” value [4, 24] of the same molecule?
**A.** The value was 0.

**Q.** What about the “Plant response rating, Alexandergrass” value [4, 25] of the same molecule?
**A.** The value was 0.

**Q.** And the “Plant response rating, Alexandergrass” value ([4]; Rate 250 g/ha)?
**A.** The value was 80.

**Q.** What about the “Plant response rating, Alexandergrass” value ([4]; Rate 500 g/ha) of the same molecule?
**A.** The value was 100.

**Q.** What about the “Plant response rating, Guineagrass” value [5, 23] of the same molecule?
**A.** Its value is 0.

**Q.** What about the “Plant response rating, Guineagrass” value [5, 24] of the same molecule?
**A.** Its value is 0.

**Q.** What about the “Plant response rating, Guineagrass” value [5, 25] of the same molecule?
**A.** The value was 40.

**Q.** What about the “Plant response rating, Guineagrass” value ([5]; Rate 250 g/ha) of the same molecule?
**A.** The value was 90.

**Q.** And the “Plant response rating, Guineagrass” value ([5]; Rate 500 g/ha)?
**A.** Its value is 100.

**Q.** And the “Plant response rating, Spanishneedles” value [6, 23]?
**A.** Its value is 0.

**Q.** What about the “Plant response rating, Spanishneedles” value [6, 24] of the same molecule?
**A.** Its value is 0.

**Q.** What about the “Spanishneedles plant response rating” value [6, 25] of the same molecule?
**A.** The value was 0.

**Q.** And the “Plant response rating, Spanishneedles” value ([6]; Rate 500 g/ha)?
**A.** The value was 10.

**Q.** What about the “Plant response rating, Tall Mallow” value [7, 23] of the same molecule?
**A.** Its value is 0.

**Q.** What about the “Plant response rating, Tall Mallow” value [7, 24] of the same molecule?
**A.** Its value is 0.

**Q.** What about the “Tall Mallow plant response rating” value [7, 25] of the same molecule?
**A.** Its value is 0.

**Q.** What about the “Plant response rating, Tall Mallow” value ([7]; Rate 250 g/ha) of the same molecule?
**A.** The value was 0.

**Q.** And the “Plant response rating, Tall Mallow” value ([7]; Rate 500 g/ha)?
**A.** Its value is 20.

**Q.** What about the “Plant response rating, Wheat (winter)” value ([8]; Rate 62 g/ha, 0 to 100 scale) of the same molecule?
**A.** Its value is 0.

**Q.** What about the “Plant response rating, Wheat (winter)” value ([8]; Rate 125 g/ha, 0 to 100 scale) of the same molecule?
**A.** The value was 0.

**Q.** What about the “Plant response rating, Wheat (winter)” value ([8]; Rate 250 g/ha, 0 to 100 scale (0 no effect, 100 complete control)) of the same molecule?
**A.** Its value is 10.

**Q.** And the “Plant response rating, Green foxtail” value ([9]; Preemergence; Rate 16 g/ha; 0 to 100 scale, 0 no injury, 100 complete control)?
**A.** Its value is 0.

**Q.** What about the “Plant response rating, Green foxtail” value ([9]; Preemergence; Rate 32 g/ha; 0 to 100 scale, 0 no injury, 100 complete control) of the same molecule?
**A.** Its value is 0.

**Q.** What about the “Plant response rating, Green foxtail” value ([9]; Rate 16 g/ha; Preemergence; 0 to 100 scale, 0 no injury, 100 complete control) of the same molecule?
**A.** The value was 0.

**Q.** What about the “Plant response rating, Green foxtail” value ([9]; Rate 32 g/ha; Preemergence; 0 to 100 scale, 0 no injury, 100 complete control) of the same molecule?
**A.** The value was 98.

**Q.** And the “Green foxtail plant response rating” value [9, 26]?
**A.** The value was 85.

**Q.** What about the “Plant response rating, Green foxtail” value [9, 26] of the same molecule?
**A.** The value was 85.

**Q.** And the “Plant response rating, Green foxtail” value ([9]; Rate 250 g/ha; Preemergence; 0 to 100 scale)?
**A.** Its value is 98.

**Q.** What about the “Plant response rating, Green foxtail” value ([9]; Rate 500 g/ha, Preemergence; 0 to 100 scale) of the same molecule?
**A.** Its value is 0.

**Q.** What about the “Plant response rating, Blackgrass” value [10, 27] of the same molecule?
**A.** The value was 10.

**Q.** And the “Plant response rating, Blackgrass” value [10, 28]?
**A.** The value was 20.

**Q.** And the “Plant response rating, Blackgrass” value ([10]; Rate 250 g/ha, 0 to 100 scale)?
**A.** The value was 50.

**Q.** And the “Plant response rating, Green foxtail” value [11, 27]?
**A.** Its value is 10.

**Q.** And the “Plant response rating, Green foxtail” value [11, 28]?
**A.** Its value is 20.

**Q.** And the “Plant response rating, Green foxtail” value ([11]; Rate 250 g/ha, 0 to 100 scale)?
**A.** Its value is 50.

**Q.** What about the “Plant response rating, I. Ryegrass” value [12, 27] of the same molecule?
**A.** The value was 0.

**Q.** What about the “Plant response rating, I. Ryegrass” value [12, 28] of the same molecule?
**A.** The value was 0.

**Q.** What about the “Plant response rating, I. Ryegrass” value ([12]; Rate 250 g/ha, 0 to 100 scale) of the same molecule?
**A.** Its value is 20.

**Q.** What about the “Plant response rating, Wheat (winter)” value [13, 27] of the same molecule?
**A.** Its value is 0.

**Q.** And the “Plant response rating, Wheat (winter)” value [13, 28]?
**A.** The value was 0.

**Q.** And the “Plant response rating, Wheat (winter)” value ([13]; Rate 250 g/ha, 0 to 100 scale)?
**A.** The value was 0.

**Q.** What about the “Plant response rating, Wild oat” value [14, 27] of the same molecule?
**A.** Its value is 0.

**Q.** And the “Plant response rating, Wild oat” value [14, 28]?
**A.** The value was 0.

**Q.** And the “Plant response rating, Barley (winter)” value [15, 27]?
**A.** The value was 0.

**Q.** What about the “Plant response rating, Barley (winter)” value [15, 28] of the same molecule?
**A.** Its value is 10.

**Q.** What about the “Plant response rating, Barley (winter)” value ([15]; Rate 250 g/ha, 0 to 100 scale) of the same molecule?
**A.** The value was 10.
